What is called Dmax is the largest share of the target that was removed.

The first experiment concerns the target T1, ERRα (Homo sapiens, UniProt P11474).
T1 sequence (P11474 1-423): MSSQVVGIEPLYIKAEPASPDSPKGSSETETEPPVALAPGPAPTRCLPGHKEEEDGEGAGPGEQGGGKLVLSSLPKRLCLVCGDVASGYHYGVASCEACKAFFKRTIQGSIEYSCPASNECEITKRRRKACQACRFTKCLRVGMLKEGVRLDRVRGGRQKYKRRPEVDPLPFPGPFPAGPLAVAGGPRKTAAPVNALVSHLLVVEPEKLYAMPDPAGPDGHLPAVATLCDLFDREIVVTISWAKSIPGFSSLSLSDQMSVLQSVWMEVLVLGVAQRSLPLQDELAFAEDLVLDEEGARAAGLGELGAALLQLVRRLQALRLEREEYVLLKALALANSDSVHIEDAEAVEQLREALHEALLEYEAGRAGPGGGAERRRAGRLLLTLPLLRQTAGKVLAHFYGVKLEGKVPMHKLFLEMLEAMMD
Put plainly: ERRα degradation in ST-486 cells. It counts as cell-based. Details: degration of ERRα in either MCF-7 cells or ST-486 cells; endogenous in cells; host or cells: ST-486. To be noted: ST486, column C, read-out: ERRα Degradation Dmax (Estimated) ST-486 cells. How it is done:
(§1) Using the methods as described herein, the following exemplary PROTAC compounds were prepared (see Table below). The exemplary compounds were also assayed for their ability to effectuate the degration of ERRα in either MCF-7 cells or ST-486 cells. Thus, in certain embodiments, the description provides the compounds below, including compositions comprising effective amount of a compound as listed below or a derivative, analog, or a prodrug of the same, in combination with at least one of a pharmaceutically acceptable carrier, another active agent, including a second PROTAC molecule as described herein or a combination thereof. In additional embodiments, the disclosure provides a method of treating a disease or condition in a subject in need thereof, comprising administering a composition comprising an effective amount of a compound listed below, wherein the composition is effective for treating or ameliorating a symptom of the disease or condition.
(§2) Legend for following table: A=ERRα Degradation Dmax (Estimated) MCF-7 cells; B=ERRα Degradation DC50 (Estimated) MCF-7 cells; C=ERRα Degradation Dmax (Estimated) ST-486 cells; D=ERRα Degradation DC50 (Estimated) ST-486 cells
For the molecule `COc1cc(/C=C2\SC(=O)N(CCCCOCCCCOCCCCCC(=O)N[C@H](C(=O)N3C[C@H](O)C[C@H]3C(=O)NCc3ccc(-c4scnc4C)cc3)C(C)(C)C)C2=O)ccc1Oc1ccc(C#N)cc1C(F)(F)F` [ARV N000246], the greatest degradation seen (Dmax) is 90%. Same read-out and setting: under `COc1cc(/C=C2\SC(=O)N(CCOCCOCCOCC(=O)N[C@H](C(=O)N3C[C@H](O)C[C@H]3C(=O)NCc3ccc(-c4scnc4C)cc3)C(C)(C)C)C2=O)ccc1Oc1ccccc1C(F)(F)F` [ARV N000383] stands 98%; under `COc1cc(/C=C2\SC(=O)N(CCOCCC(=O)N[C@H](C(=O)N3C[C@H](O)C[C@H]3C(=O)NCc3ccc(-c4scnc4C)cc3)C(C)(C)C)C2=O)ccc1Oc1ccccc1C(F)(F)F` [ARV N000414], 98%; under `COc1cc(/C=C2\SC(=O)N(Cc3ccc(CC(=O)N[C@H](C(=O)N4C[C@H](O)C[C@H]4C(=O)NCc4ccc(-c5scnc5C)cc4)C(C)(C)C)cc3)C2=O)ccc1Oc1ccc(C#N)cc1C(F)(F)F` [ARV N000413], 98%. With `COc1cc(/C=C2\SC(=O)N(Cc3cccc(CC(=O)N[C@H](C(=O)N4C[C@H](O)C[C@H]4C(=O)NCc4ccc(-c5scnc5C)cc4)C(C)(C)C)c3)C2=O)ccc1Oc1ccc(C#N)cc1C(F)(F)F` [ARV N000382], the Dmax was 98%.

`COc1cc(/C=C2\SC(=O)N(CCOCCOCCCCOCCCCOCCOCCOc3cc(-c4scnc4C)ccc3CNC(=O)[C@@H]3C[C@@H](O)CN3C(=O)[C@H](C(C)C)N3Cc4ccccc4C3=O)C2=O)ccc1Oc1ccc(C#N)cc1C(F)(F)F` [ARV N000266]: the Dmax is 50%. For the molecule `COc1cc(/C=C2\SC(=O)N(CCOCCOCCCCCOCCOCCOCC(=O)N[C@H](C(=O)N3C[C@H](O)C[C@H]3C(=O)NCc3ccc(-c4scnc4C)cc3)C(C)(C)C)C2=O)ccc1Oc1ccc(C#N)cc1C(F)(F)F` [ARV N000267], the Dmax was 80%. The same measure, in the same setting: under `COc1cc(/C=C2\SC(=O)N(CCOCCOCCCCOCCOCCOc3cc(-c4scnc4C)ccc3CNC(=O)[C@@H]3C[C@@H](O)CN3C(=O)[C@H](C(C)C)N3Cc4ccccc4C3=O)C2=O)ccc1Oc1ccc(C#N)cc1C(F)(F)F` [ARV N000265] stands 80%; under `COc1cc(/C=C2\SC(=O)N(CCCCOCCCCOCCCCCCC(=O)N[C@H](C(=O)N3C[C@H](O)C[C@H]3C(=O)NCc3ccc(-c4scnc4C)cc3)C(C)(C)C)C2=O)ccc1Oc1ccc(C#N)cc1C(F)(F)F` [ARV N000245], 40%; under `COc1cc(/C=C2\SC(=O)N(CCCCOCCOCCOCC(=O)N[C@H](C(=O)N3C[C@H](O)C[C@H]3C(=O)NCc3ccc(-c4scnc4C)cc3)C(C)(C)C)C2=O)ccc1Oc1ccc(C#N)cc1C(F)(F)F` [ARV N000236], 90%.

In another experiment the target is T1, ERRα. Put plainly: ERRα degradation in MCF-7 cells. It counts as cell-based. Details: endogenous in cells; host or cells: MCF-7 (ATCC). As to conditions: MCF7, column A, read-out: ERRα Degradation Dmax (Estimated) MCF-7 cells. How it is done:
Human MDA-MB-231 and MCF7 cells (purchased authenticated ATCC cell lines) were cultured in complete growth medium (Dulbecco's modified Eagle's medium (DMEM)/F12 supplemented with 10% FBS; Life Technologies) and grown at 37° C. with 5% CO2. THP-1 cells (ATCC) were cultured in RPMI 1640+10% FBS and were grown at 37° C. with 5% CO2. For cellular degradation of ERRα, MCF7 cells were seeded in a 24-well plate at 70% confluency, allowed to attach overnight, and incubated with the indicated compounds. For cellular degradation of RIPK2, 5×10^6 cells were incubated with the indicated compounds. When indicated, a 1-hour pretreatment with 1 μM epoxomicin was performed before the addition of compound. When indicated for washout studies, after PROTAC treatment, cells were washed repeatedly with PBS and incubated with complete medium for the indicated time before harvesting. The THP1 cell line has been authenticated using the Promega GenePrint10 kit to generate a STR Profile for comparison to the expected profile reported by ATCC. Cells were also routinely tested and negative for mycoplasma. Cell lines were routinely tested for mycoplasma contamination at Clongen (Gaithersburg, Md.).
Total protein concentrations of tissue homogenates and cell lysates were determined by Pierce BCA kit (Thermo Fisher). Homogenates or lysates were separated on 4-12% NuPAGE gels (Life Technologies) and transferred onto PVDF membranes (iBlot; Life Technologies). Membranes were blocked with 5% non-fat milk in TBST (0.1% Tween-20 in Tris-Buffered Saline) before overnight incubation with indicated antibodies. After incubation with the appropriate horseradish peroxidase-conjugated secondary antibodies, the bands were visualized by enhanced chemiluminescence (Pierce West Femto ECL). The intensity of the bands was quantified with Bio-Rad Quantity One software. When the IRDye secondary antibodies were used, the infrared signal was detected using an Odyssey scanner (Li-COR Biosciences) and the densitometry was performed using the Odyssey 2.1 Analyser software. The IRDye secondary antibodies anti-mouse (926-32212) and anti-mouse (926-68072) were purchased from Li-COR Biosciences and used at a 1:5,000 dilution. Statistical analysis of tissue densitometry levels were performed with GraphPad Prism software using the indicated statistical test.
as §1, §2
`COc1cc(/C=C2\SC(=O)N(CCOCCC(=O)N[C@H](C(=O)N3C[C@@H](O)C[C@H]3C(=O)NCc3ccc(-c4scnc4C)cc3)C(C)(C)C)C2=O)ccc1Oc1ccc(C#N)cc1C(F)(F)F` [ARV N000203]: the Dmax was 40%. On the same count and under the same terms, the figure for `COc1cc(/C=C2\SC(=O)N(CCOCCOCCCOCCOCCOCC(=O)N[C@H](C(=O)N3C[C@H](O)C[C@H]3C(=O)NCc3ccc(-c4scnc4C)cc3)C(C)(C)C)C2=O)ccc1Oc1ccc(C#N)cc1C(F)(F)F` [ARV N000235] is 95%; for `COc1cc(/C=C2\SC(=O)N(CCOCCOCCCCOCCCCOCCOCC(=O)N[C@H](C(=O)N3C[C@H](O)C[C@H]3C(=O)NCc3ccc(-c4scnc4C)cc3)C(C)(C)C)C2=O)ccc1Oc1ccc(C#N)cc1C(F)(F)F` [ARV N000200] it is 80%; for `COc1cc(/C=C2\SC(=O)N(CCCCCOCCOCCC(=O)N[C@H](C(=O)N3CC(O)C[C@H]3C(=O)NCc3ccc(-c4scnc4C)cc3)C(C)(C)C)C2=O)ccc1Oc1ccc(C#N)cc1C(F)(F)F` (some centres unmarked) [ARV N000224] it is 90%.

For the molecule `COc1cc(/C=C2\SC(=O)N(CCOCCC(=O)N[C@H](C(=O)N3CC(O)C[C@H]3C(=O)NCc3ccc(-c4scnc4C)cc3)C(C)(C)C)C2=O)ccc1Oc1ccc(C#N)cc1C(F)(F)F` (some centres unmarked) [ARV N000020], the Dmax is 98%. For the molecule `COc1cc(/C=C2\SC(=O)N(CCOCCCOCCCOc3cc(-c4scnc4C)ccc3CNC(=O)[C@@H]3C[C@@H](O)CN3C(=O)[C@H](C(C)C)N3Cc4ccccc4C3=O)C2=O)ccc1Oc1ccc(C#N)cc1C(F)(F)F` [ARV N000222], the Dmax is 90%. For `COc1cc(/C=C2\SC(=O)N(CCOCCOCCOCCOCCOCC(=O)N[C@H](C(=O)N3C[C@H](O)C[C@H]3C(=O)NCc3ccc(-c4scnc4C)cc3)C(C)(C)C)C2=O)ccc1Oc1ccc(C#N)cc1C(F)(F)F` [ARV N000223], the Dmax was 80%. Turning to `COc1cc(/C=C2\SC(=O)N(CCCCOCCCCOCCCCOc3cc(-c4scnc4C)ccc3CNC(=O)[C@@H]3C[C@@H](O)CN3C(=O)[C@H](C(C)C)N3Cc4ccccc4C3=O)C2=O)ccc1Oc1ccc(C#N)cc1C(F)(F)F` [ARV N000233], the Dmax is 60%. Consider `COc1cc(/C=C2\SC(=O)N(CCOCCOCCCCCOCCCCCOCCOCCOc3cc(-c4scnc4C)ccc3CNC(=O)[C@@H]3C[C@@H](O)CN3C(=O)[C@H](C(C)C)N3Cc4ccccc4C3=O)C2=O)ccc1Oc1ccc(C#N)cc1C(F)(F)F` [ARV N000232], for which the Dmax is 60%.

Turning to `COc1cc(/C=C2\SC(=O)N(CCOCCOCCOCCOCCOCCOCC(=O)N[C@H](C(=O)N3C[C@H](O)C[C@H]3C(=O)NCc3ccc(-c4scnc4C)cc3)C(C)(C)C)C2=O)ccc1Oc1ccc(C#N)cc1C(F)(F)F` [ARV N000234], the Dmax was 98%. On the same count and under the same terms, the figure for `COc1cc(/C=C2\SC(=O)N(CCOCCOCCOCCOCCOCCOc3cc(-c4scnc4C)ccc3CNC(=O)[C@@H]3C[C@@H](O)CN3C(=O)[C@H](C(C)C)N3Cc4ccccc4C3=O)C2=O)ccc1Oc1ccc(C#N)cc1C(F)(F)F` [ARV N000220] is 85%; for `COc1cc(/C=C2\SC(=O)N(CCOCCOCCCOCCOCCOc3cc(-c4scnc4C)ccc3CNC(=O)[C@@H]3C[C@@H](O)CN3C(=O)[C@H](C(C)C)N3Cc4ccccc4C3=O)C2=O)ccc1Oc1ccc(C#N)cc1C(F)(F)F` [ARV N000199] it is 90%. As for `COc1cc(/C=C2\SC(=O)N(CCOCCOCCCCCOCCCCCOCCOCC(=O)N[C@H](C(=O)N3C[C@H](O)C[C@H]3C(=O)NCc3ccc(-c4scnc4C)cc3)C(C)(C)C)C2=O)ccc1Oc1ccc(C#N)cc1C(F)(F)F` [ARV N000201], the Dmax was 90%.

With `COc1cc(/C=C2\SC(=O)N(CCOCCOCCCCCOCCOCCOc3cc(-c4scnc4C)ccc3CNC(=O)[C@@H]3C[C@@H](O)CN3C(=O)[C@H](C(C)C)N3Cc4ccccc4C3=O)C2=O)ccc1Oc1ccc(C#N)cc1C(F)(F)F` [ARV N000231], the Dmax was 98%. On the same count and under the same terms, under `COc1cc(/C=C2\SC(=O)N(CCOCCOCCOCCOCCOc3cc(-c4scnc4C)ccc3CNC(=O)[C@@H]3C[C@@H](O)CN3C(=O)[C@H](C(C)C)N3Cc4ccccc4C3=O)C2=O)ccc1Oc1ccc(C#N)cc1C(F)(F)F` [ARV N000219] stands 98%; under `COc1cc(/C=C2\SC(=O)N(CCOCCOCCOCCOc3cc(-c4scnc4C)ccc3CNC(=O)[C@@H]3C[C@@H](O)CN3C(=O)[C@H](C(C)C)N3Cc4ccccc4C3=O)C2=O)ccc1Oc1ccc(C#N)cc1C(F)(F)F` [ARV N000198], 90%.

These data come from patent US10071164B2, “Estrogen-related receptor alpha based protac compounds and associated methods of use” (Yale University, priority 2014, dated 2018).
